Laboratory results from patent US7166618B2, “Nitrosated and nitrosylated cyclooxygenase-2 inhibitors, compositions and methods of use” (NitroMed, Inc., priority 1999, dated 2007).

Biological target: T1, human COX-2 (Homo sapiens, UniProt P35354)
T1 construct: purchased Cayman Chemical, Ann Arbor, Mich
T1 sequence (P35354 18-604): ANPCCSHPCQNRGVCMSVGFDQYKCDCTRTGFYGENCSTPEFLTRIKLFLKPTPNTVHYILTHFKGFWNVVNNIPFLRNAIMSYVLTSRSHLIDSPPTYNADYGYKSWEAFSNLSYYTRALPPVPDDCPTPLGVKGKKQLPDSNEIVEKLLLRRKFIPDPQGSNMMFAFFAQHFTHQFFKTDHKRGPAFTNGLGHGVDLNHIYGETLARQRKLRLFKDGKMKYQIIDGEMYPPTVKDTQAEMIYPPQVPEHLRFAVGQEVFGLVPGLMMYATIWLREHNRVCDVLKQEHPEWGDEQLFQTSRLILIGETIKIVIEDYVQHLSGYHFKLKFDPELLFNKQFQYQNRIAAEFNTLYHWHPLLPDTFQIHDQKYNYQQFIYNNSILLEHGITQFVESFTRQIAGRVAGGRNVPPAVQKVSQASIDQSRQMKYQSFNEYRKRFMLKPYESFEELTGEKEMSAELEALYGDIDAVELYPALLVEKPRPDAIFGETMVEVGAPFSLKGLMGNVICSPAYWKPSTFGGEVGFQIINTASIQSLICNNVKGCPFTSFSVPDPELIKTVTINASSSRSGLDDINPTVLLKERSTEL
Test: Assay for human COX-2 activity (COX Inhibitor Screening Assay, Cayman)
Type: biochemical
Conditions: human COX-2, at 10 μM
Procedure: The human COX-1 and COX-2 activities and the measurement of the prostaglandin products synthesized were performed using the COX Inhibitor Screening Assay (Cayman Chemical, Ann Arbor, Mich., which also contained the Prostaglandin Screening EIA Kit, used for prostaglandin quantification). The test compounds were dissolved at 50 times the highest final reaction concentration in DMSO or any other suitable solvent as stock solutions. These stock solutions were then diluted in the same solvent. Eight glass test tubes (13×100 mm) were placed in a 25° C. water bath. To each test tube was added 950 μL of reaction buffer (0.1 M Tris-HCl, pH 8.0, containing 5 mM EDTA, and 2 mM phenol), 10 μL of 100 µM heme solution, and 10 μL (5 units) of either human COX-1 or COX-2 and the resulting mixture incubated with the enzyme for 2 minutes. Twenty μL of the solvent was added to one tube (100% initial activity or solvent control) and 20 μL of each dilution of the test compound was added to one tube each. Each tube was vortexed immediately after the addition. The enzyme was incubated with the inhibitor for 20 minutes at 25° C. The enzymatic reaction was then initiated by the addition of 10 μL of freshly prepared 10 mM arachidonic acid (neutralized with KOH), vortexed and then incubated for 2 minutes (or, in some cases as indicated, 30 seconds) at 37° C. The reaction was terminated by the addition of 50 μL of 1 M HCl, vortexed and placed at room temperature. One hundred microliters of a saturated stannous chloride solution (50 mg/mL of 0.1 M HCl) was added and the reaction mixture was allowed to stand at room temperature for at least 5 min.
The prostaglandins (PG) produced in the reactions were assayed, after a 2,000-fold dilution, using the Prostaglandin Screening EIA Kit (Cayman Chemical, Ann Arbor, Mich.). The assay contains an antibody with broad specificity for all the prostaglandin families (PGF, PGE, PGD, and thromboxane B-type) synthesized in the COX-1/COX 2 reactions. The synthesized prostaglandin competes with a PG-tagged acetylcholine esterase tracer for binding to the PG antibody. Binding of synthesized PG lowers the colorimetric development of the Ellman's Reagent (computed as % B/B0). The actual amount of synthesized PG was interpolated from a standard curve using known amounts of supplied prostaglandin E2 (PGE2) (PGE2 concentration vs. % B/B0). The data generated were the mean±standard deviation of triplicate wells in the EIA for a single reaction at a given inhibitor concentration.

Compound: NS(=O)(=O)c1ccc(-c2c(-c3ccccc3)noc2CO[N+](=O)[O-])cc1 [Example 2b, 4-(5-((Nitrooxy)methyl)-3-phenylisoxazol-4-yl)benzenesulfonamide]
- inhibition at 10 µM: 100%
